Two compounds from patent US7691816B2, “Pharmaceutical compositions” (Renovo Ltd., priority 2005, dated 2010) can be followed below.

The data set can be described thus: Localised pain and erythema associated with intradermal injection of formulations. It counts as in vivo, human. Here is the method:
A study was conducted to evaluate localised pain and erythema associated with intradermal injection of medicaments manufactured in accordance with the invention and the pain and erythema associated with control injections of prior art compositions.
Experimental injectable solutions were prepared as described above.
Briefly, a volume of 100 μL of each formulation described above was injected intradermally into the inner aspect of the upper arms of a volunteer. In addition to the DS11 control described above, a solution of the known local anaesthetic lignocaine was also used as a further control. The pain on injection and erythema were categorised by the volunteer and a clinician.
Both the volunteer and the clinician undertook these evaluations. The extent of pain or erythema associated with the different formulations used was rated based upon the following categories (listed in ascending severity): […]

Setting [1] is: Volunteer 1, 100 μL intradermal, inner aspect of upper arm.
The mark [2] stands for this setting: Volunteer 2, 100 μL intradermal, inner aspect of upper arm.

For `CCN(CC)CC(=O)Nc1c(C)cccc1C` [Lignocaine, lignocaine], the Erythema entry is, setting by setting: (Table 4, summary of Table 3) “Marked”; under setting [1], “Marked”; under setting [2], “Marked”. The Pain result is reported as “Marked” (Table 4, summary of Table 3); “Marked” under setting [1]; “Marked” under setting [2].
As to Glucose, the Pain entry (in vivo) is given as “None”.
